Data published in patent publication US9012433B2, “Substituted tetracycline compounds” (Paratek Pharmaceuticals, Inc., priority 2006, dated 2015).
Values after ≈ are worked out from the molar mass of the structure shown.

Key:
in vitro = format: cell-based
Description: Mammalian cell cytotoxicity was assessed to evaluate potential in vivo risks associated with the tetracycline compounds of the invention. A soluble, non-toxic redox dye (“Resazurin”; Alamar Blue) was used to assess a tetracycline compound's effect on cellular metabolism. At the onset of the experiment, cultures of mammalian COS-1 or CHO cells were washed, trypsinized, and harvested. […] On the next day, serial dilutions of test drug were prepared under sterile conditions and transferred to cell plates. Plates were then incubated under the above conditions for 24 hours. Following the incubation period, the media/drug was aspirated, and 50 μL of resazurin was added. Plates were then incubated under the above conditions for 2 hours and then in the dark at room temperature for an additional 30 minutes. Fluorescence measurements were taken (excitation 535 nm, emission 590 nm) and toxic effects in treated versus control cells were compared based on the degree of fluorescence in each well.

[1] = test system: B. thetaiotaomicron ATCC 29741; test: Antibacterial MIC, CLSI broth microdilution; format: cell-based; details: 35° C., 18-24 hours; for MIC: Bacteroides thetaiotaomicron, ATCC29741, read-out: MIC B. thetaiotaomicron ATCC 29741
Description: (§1) Grain (−) and gram (+) antibacterial minimum inhibitory concentration (MIC) values (μg/mL) were obtained using CLSI methodology for anti-bacterial susceptibility testing. On each day of testing, serial dilutions of compounds were prepared in microdilution plates using a Tecan robotic workstation. Mueller Hinton broth cultures of representative sensitive and resistant gram negative strains were grown or adjusted to match the turbidity of a 0.5 McFarland standard. 1:200 dilutions were made in an appropriate broth (cation supplemented Mueller Hinton broth) to allow a final inoculum of 1×10^5 cfu. Plates were incubated at 35° C. in ambient air for 18-24 hours, were read spectrophotometrically and checked manually for evidence of bacterial growth. The lowest dilution of compound that inhibited growth was recorded as the MIC. Lysed horse blood was used to supplement broth for testing S. pneumoniae. The MIC's for each compound were assessed against S. aureus, S. pneumoniae, P. acnes, E. coli and B. theta.

E. coli ATCC 25922 = test: Antibacterial MIC, CLSI broth microdilution; format: cell-based; details: 35° C., 18-24 hours; for MIC: Escherichia coli, ATCC25922
Description: as §1

S. aureus RN450 [2] = test: Antibacterial MIC, CLSI broth microdilution; format: cell-based; details: 35° C., 18-24 hours; for MIC: Staphylococcus aureus, RN450
Description: as §1

E. coli MG 1655 = test: Antibacterial MIC, CLSI broth microdilution; format: cell-based; details: 35° C., 18-24 hours; for MIC: Escherichia coli, MG1655
Description: as §1

P. acnes ATCC 6919 = test: Antibacterial MIC, CLSI broth microdilution; format: cell-based; details: 35° C., 18-24 hours; for MIC: Cutibacterium acnes, ATCC6919
Description: as §1

P. acnes ATCC 11827 = test: Antibacterial MIC, CLSI broth microdilution; format: cell-based; details: 35° C., 18-24 hours; for MIC: Cutibacterium acnes, ATCC11827
Description: as §1

[3] = test system: S. pneumoniae 157E - Strep; test: Antibacterial MIC, CLSI broth microdilution; format: cell-based; details: 35° C., 18-24 hours, lysed horse blood; for MIC: Streptococcus pneumoniae, 157ESTREP
Description: as §1

S. aureus RN450 [4] = test: In vivo anti-bacterial activity, S. aureus model; details: mice, lethal IP S. aureus RN450, subcutaneous, 24 hours; for ED50: Staphylococcus aureus, sc, read-out: PD50 (dose that protects 50% of the animals)
Description: Groups of five mice were injected intraperitoneally with a lethal dose of S. aureus RN450 in a medium of mucin. Mice were evaluated at 24 hours to determine survival. […] In some instances, a dose response study was performed with the compound such that a PD50 (a dose of compound that protects 50% of the animals) could be calculated.

| Molecule | IC50 at 24 h (in vitro; African green monkey) [µg/mL] | IC50 at 24 h (in vitro; Chinese hamster) [µg/mL] | MIC [1] [µg/mL] | MIC (E. coli ATCC 25922) [µg/mL] | MIC (S. aureus RN450 [2]) [µg/mL] | MIC (E. coli MG 1655) [µg/mL] | MIC (P. acnes ATCC 6919) [µg/mL] | MIC (P. acnes ATCC 11827) [µg/mL] | MIC [3] [µg/mL] | ED50 (S. aureus RN450 [4]) [mg/kg] | MIC B. thetaiotaomicron ATCC 29741 [1] | MIC E. coli ATCC 25922 (E. coli ATCC 25922) | MIC S. aureus RN450 (S. aureus RN450 [2]) | MIC E. coli MG 1655 (E. coli MG 1655) | MIC P. acnes ATCC 6919 (P. acnes ATCC 6919) | MIC P. acnes ATCC 11827 (P. acnes ATCC 11827) | MIC S. pneumoniae 157E - Strep [3] | PD50 (dose that protects 50% of the animals) (S. aureus RN450 [4]) [mg/kg] |
| --- | --- | --- | --- | --- | --- | --- | --- | --- | --- | --- | --- | --- | --- | --- | --- | --- | --- | --- |
| C=CCONCc1ccc(O)c2c1C[C@H]1C[C@H]3[C@H](N(C)C)C(O)=C(C(N)=O)C(=O)[C@@]3(O)C(O)=C1C2=O [AF] | 35 to 75 (≈ 70.1 to 150 µM) | 35 to 75 (≈ 70.1 to 150 µM) | < 4 | 4 to 8 (≈ 8.01 to 16 µM) | < 4 | 4 to 8 (≈ 8.01 to 16 µM) | < 4 | < 4 | < 4 | 0.23 | – | – | – | – | – | – | – | – |
| CN(C)[C@@H]1C(O)=C(C(N)=O)C(=O)[C@@]2(O)C(O)=C3C(=O)c4c(O)ccc(CNOCC(F)(F)F)c4C[C@H]3C[C@@H]12 [DZ] | < 35 | < 35 | < 4 | 4 to 8 (≈ 7.39 to 14.8 µM) | < 4 | > 8 | < 4 | < 4 | < 4 | 1.11 | – | – | – | – | – | – | – | – |
| (4S,4aS,5aR,12aS)-4-Dimethylamino-3,12,12a-trihydroxy-1,11-dioxo-7-pyrazin-2-yl-1,4,4a,5,5a,6,11,12a-octahydro-naphthacene-2-carboxylic acid amide [W] | – | – | – | – | – | – | – | – | – | – | * (weak or no antibacterial activity (greater than about 8 μg/mL)) | * (weak or no antibacterial activity (greater than about 8 μg/mL)) | *** (Good antibacterial activity (e.g., less than about 4 μg/mL)) | * (weak or no antibacterial activity (greater than about 8 μg/mL)) | *** (Good antibacterial activity (e.g., less than about 4 μg/mL)) | *** (Good antibacterial activity (e.g., less than about 4 μg/mL)) | *** (Good antibacterial activity (e.g., less than about 4 μg/mL)) | 1.08 |
| CCO/N=C(\C)c1cc(N)c(O)c2c1C[C@H]1C[C@H]3[C@H](N(C)C)C(O)=C(C(N)=O)C(=O)[C@@]3(O)C(O)=C1C2=O [M] | > 75 | > 75 | 4 to 8 (≈ 7.77 to 15.5 µM) | < 4 | < 4 | 4 to 8 (≈ 7.77 to 15.5 µM) | < 4 | < 4 | < 4 | – | – | – | – | – | – | – | – | – |
| CN(C)[C@H]1C(O)=C(C(N)=O)C(=O)[C@@]2(O)C(O)=C3C(=O)c4c(O)ccc(CNOCC(F)(F)F)c4C[C@H]3C[C@@H]12 [EA] | > 75 | > 75 | 4 to 8 (≈ 7.39 to 14.8 µM) | > 8 | < 4 | > 8 | < 4 | < 4 | 4 to 8 (≈ 7.39 to 14.8 µM) | – | – | – | – | – | – | – | – | – |
| CN(C)[C@H]1C(O)=C(C(N)=O)C(=O)[C@@]2(O)C(O)=C3C(=O)c4c(O)ccc(CNOCC(F)F)c4C[C@H]3C[C@@H]12 [DY] | > 75 | > 75 | 4 to 8 (≈ 7.64 to 15.3 µM) | > 8 | < 4 | > 8 | < 4 | < 4 | 4 to 8 (≈ 7.64 to 15.3 µM) | – | – | – | – | – | – | – | – | – |
| CCON(C)Cc1ccc(O)c2c1C[C@H]1C[C@H]3[C@H](N(C)C)C(O)=C(C(N)=O)C(=O)[C@@]3(O)C(O)=C1C2=O [AE] | > 75 | < 35 | 4 to 8 (≈ 7.98 to 16 µM) | 4 to 8 (≈ 7.98 to 16 µM) | < 4 | > 8 | < 4 | < 4 | < 4 | – | – | – | – | – | – | – | – | – |
| CCONCc1ccc2c(c1O)C(=O)C1=C(O)[C@]3(O)C(=O)C(C(N)=O)=C(O)[C@@H](N(C)C)[C@@H]3C[C@@H]1C2 [GM] | < 35 | < 35 | 4 to 8 (≈ 8.2 to 16.4 µM) | > 8 | < 4 | > 8 | < 4 | 4 to 8 (≈ 8.2 to 16.4 µM) | < 4 | – | – | – | – | – | – | – | – | – |
| CN(C)[C@@H]1C(O)=C(C(N)=O)C(=O)[C@@]2(O)C(O)=C3C(=O)c4c(O)ccc(-c5nccs5)c4C[C@H]3C[C@@H]12 [L] | < 35 | < 35 | < 4 | < 4 | < 4 | < 4 | < 4 | < 4 | < 4 | – | – | – | – | – | – | – | – | – |
| CN(C)[C@@H]1C(O)=C(C(N)=O)C(=O)[C@@]2(O)C(O)=C3C(=O)c4c(O)ccc(-c5ccc[nH]5)c4C[C@H]3C[C@@H]12 [T, (4S,4aS,5aR,12aS)-4-Dimethylamino-3,10,12,12a-tetrahydroxy-1,11-dioxo-7-(1H-pyrrol-2-yl)-1,4,4a,5,5a,6,11,12a-octahydro-naphthacene-2-carboxylic acid amide] | < 35 | < 35 | 4 to 8 (≈ 8.34 to 16.7 µM) | < 4 | < 4 | < 4 | < 4 | < 4 | < 4 | – | – | – | – | – | – | – | – | – |
| CN(C)[C@@H]1C(O)=C(C(N)=O)C(=O)[C@@]2(O)C(O)=C3C(=O)c4c(O)ccc(/C=N/NC(C)(C)C)c4C[C@H]3C[C@@H]12 [X] | < 35 | < 35 | < 4 | < 4 | < 4 | < 4 | < 4 | < 4 | < 4 | – | – | – | – | – | – | – | – | – |
| CN(C)[C@@H]1C(O)=C(C(N)=O)C(=O)[C@@]2(O)C(O)=C3C(=O)c4cccc(-c5ncccn5)c4C[C@H]3C[C@@H]12 [S] | > 75 | > 75 | > 8 | > 8 | < 4 | > 8 | 4 to 8 (≈ 8.39 to 16.8 µM) | 4 to 8 (≈ 8.39 to 16.8 µM) | < 4 | – | – | – | – | – | – | – | – | – |
| C=CCN(Cc1ccc(O)c2c1C[C@H]1C[C@H]3[C@H](N(C)C)C(O)=C(C(N)=O)C(=O)[C@@]3(O)C(O)=C1C2=O)C(=O)OC [F] | < 35 | < 35 | 4 to 8 (≈ 7.39 to 14.8 µM) | > 8 | < 4 | > 8 | < 4 | < 4 | < 4 | – | – | – | – | – | – | – | – | – |
| CCNN(CC)Cc1ccc(O)c2c1C[C@H]1C[C@H]3[C@H](N(C)C)C(O)=C(C(N)=O)C(=O)[C@@]3(O)C(O)=C1C2=O [Z, (4S,4aS,5aR,12aS)-7-(N,N″-Diethyl-hydrazinomethyl)-4-dimethylamino-3,10,12,12a-tetrahydroxy-1,11-dioxo-1,4,4a,5,5a,6,11,12a-octahydro-naphthacene-2-carboxylic acid amide] | > 75 | > 75 | > 8 | 4 to 8 (≈ 7.77 to 15.5 µM) | < 4 | 4 to 8 (≈ 7.77 to 15.5 µM) | < 4 | < 4 | < 4 | – | – | – | – | – | – | – | – | – |
| CN(C)CC/C(=N\OC(C)(C)C)c1ccc(O)c2c1C[C@H]1C[C@H]3[C@H](N(C)C)C(O)=C(C(N)=O)C(=O)[C@@]3(O)C(O)=C1C2=O [O] | 35 to 75 (≈ 59.9 to 128 µM) | < 35 | < 4 | < 4 | < 4 | < 4 | < 4 | < 4 | < 4 | – | – | – | – | – | – | – | – | – |
| C/C(=N\OC(C)(C)C)c1cc(N)c(O)c2c1C[C@H]1C[C@H]3[C@@H](N(C)C)C(O)=C(C(N)=O)C(=O)[C@@]3(O)C(O)=C1C2=O [R] | < 35 | < 35 | 4 to 8 (≈ 7.37 to 14.7 µM) | > 8 | < 4 | > 8 | < 4 | < 4 | < 4 | – | – | – | – | – | – | – | – | – |
| CCO/N=C(\C)c1cc(CNCC(C)(C)C)c(O)c2c1C[C@H]1C[C@H]3[C@H](N(C)C)C(O)=C(C(N)=O)C(=O)[C@@]3(O)C(O)=C1C2=O [N] | > 75 | > 75 | < 4 | < 4 | < 4 | 4 to 8 (≈ 6.68 to 13.4 µM) | < 4 | < 4 | < 4 | – | – | – | – | – | – | – | – | – |
